Patent EP4596570A1, “SRC INHIBITORS AND USES THEREOF” (Universitat de Barcelona, priority 2024, dated 2025)
“Also recorded” adds a separate entry of the source.

What was measured:
Assay type in all cases: cell-based, human
[1] = system: SW620-src colorectal cancer cells; assay: Cell viability assay (MTT); conditions: 72h, varying concentrations, much higher than those used in biological activity assays, Fig. 13
Description: (§1) SW620-src colorectal cancer cells were a kind gift of Dr. Serge Roche group. These cells have been stably transfected with human Src as described in Aponte, E., et al. (2021). "Regulation of Src tumor activity by its N-terminal intrinsically disordered region." Oncogene, 41: 960-970.. SW620-src colorectal cancer cells were grown in DMEM supplemented with 10% FBS (Gibco 10500-064), 1% GlutaMAX (Gibco 35050038) 1% P/S (Corning 30-002-CI). Cell lines were grown at 37°C with an atmosphere of 95% air, 5% CO2. All the reagents used during cell culture procedures were heated to 37°C in a water bath before its use. Before each assay, the absence of mycoplasma was tested according to a previously described protocol (Molla Kazemiha, V., et al. (2009). "PCR-based detection and eradication of mycoplasmal infections from various mammalian cell lines: a local experience." Cytotechnology 61(3): 117-124).
Cell viability was measured by MTT assay as described before (Kamiloglu, S., et al. (2020). "Guidelines for cell viability assays." Food Frontiers 1(3): 332-349).. […]
SW620-src cells were seeded into 96-well plates containing 100 µL of the growth medium at a density of 10000 cells/well for and cultured for one day. […] Afterwards, the plates were read under 570/690 nm wavelengths by plate reader (Synergy HTX, Biotek).

[2] = system: SW620-src colorectal cancer cells; assay: Wound healing assay (scratch, cell migration); conditions: Src transformed SW620 cells, 24h after scratch; Fig. 12
Description: as §1, with “Before each assay, the absence of mycoplasma was tested according to a previously described protocol (Molla Kazemiha, V., et al. (2009). "PCR-based detection and eradication of mycoplasmal infections from various mammalian cell lines: a local experience." Cytotechnology 61(3): 117-124).” left out
Cells were plated into 24-well plate at density of 500,000 cells/well and were cultured until they reach a 100% confluence. […] Each well was photographed in the same site to quantify cell migration after 24 hours. […] The obtained images were analyzed by Imaged software (Schindelin, J., et al. (2012). "Fiji: an open-source platform for biological-image analysis." Nature Methods 9(7): 676-682) using the MRI wound healing tool plugin (Suarez-Arnedo, A., et al. (2020). "An image J plugin for the high throughput image analysis of in vitro scratch wound healing assays." PLOS ONE 15(7): e0232565) . […]

[3] = system: SW620-src colorectal cancer cells; assay: Soft agar colony formation assay; conditions: Src transformed SW620 colorectal cancer cells, 5 µM of Drugs, 3 weeks, colonies with >50 cells counted; Fig. 11
Description: as §1
Cells were plated at density of 10,000 per well in 24-well plates in 0.3% soft agar on top of a base layer of 0.7% agar. The cells were treated with 5 µM of Drugs, and the plates were incubated for 3 weeks, replacing the media every week. […] These experiments were repeated twice with 4 replicates per group, and only colonies with >50 cells were counted.

Compound	cell viability [1]	migration of cancer cells (scratch wound healing) [2]	colony formation [3]
COC(=O)N[C@@H](CO)C(=O)N[C@@H](CC(C)C)C(=O)N[C@@H](CCC(=O)O)C(=O)N1CCC[C@H]1c1cn(-c2ccc(-c3ccc(-n4cc([C@@H]5CCCN5C(=O)[C@H](CCC(=O)O)NC(=O)[C@H](CC(C)C)NC(=O)[C@H](CO)NC(=O)OC)nn4)cc3)cc2)nn1 [SLE-Me, Moc-Ser-Leu-Glu-1-Glu-Leu-Ser-Moc]	do not significantly affect cell viability	–	–
COC(=O)NC(C(=O)N1CCC[C@H]1c1cn(-c2ccc(-c3ccc(-n4cc([C@@H]5CCCN5C(=O)C(NC(=O)OC)C(C)C)nn4)cc3)cc2)nn1)C(C)C (stereo partly drawn) [V-Me, Moc-Val-1-Val-Moc]	do not significantly affect cell viability	significantly reduced; also recorded: significantly impair	significantly reduced; also recorded: significantly decrease
Moc-Leu-Lys-1-Lys-Leu-Moc [LK-Me]	–	does not show significant biological activity; also recorded: no effect	does not show significant biological activity; also recorded: no effect
